Source: ChEMBL document CHEMBL2440045, “The synthesis and anticancer activity of analogs of the indole phytoalexins brassinin, 1-methoxyspirobrassinol methyl ether and cyclobrassinin” (Bioorg Med Chem, 2013)

Assays:
MCF7 [1] = assay: Selectivity index, ratio of IC50 for HUVEC to IC50 for human MCF7 cells
HeLa [2] = assay: Selectivity index, ratio of IC50 for HUVEC to IC50 for human HeLa cells
MDA-MB-231 [3] = assay: Antiproliferative activity against human MDA-MB-231 cells assessed as cell viability after 72 hrs by MTT assay; assay type: functional, cell-based; settings: MDA-MB-231, 72 h
Jurkat [4] = assay: Antiproliferative activity against human Jurkat cells assessed as cell viability after 72 hrs by MTT assay; assay type: functional, cell-based
A549 [5] = assay: Selectivity index, ratio of IC50 for HUVEC to IC50 for human A549 cells
CCRF-CEM [6] = assay: Selectivity index, ratio of IC50 for HUVEC to IC50 for human CCRF-CEM cells
Jurkat [7] = assay: Selectivity index, ratio of IC50 for HUVEC to IC50 for human Jurkat cells
HeLa [8] = assay: Antiproliferative activity against human HeLa cells assessed as cell viability after 72 hrs by MTT assay; assay type: functional, cell-based
[9] = Selectivity index, ratio of IC50 for HUVEC to IC50 for human MDA-MB-231 cells
HUVEC = assay: Cytotoxicity against HUVEC assessed as cell viability after 48 hrs by MTT assay; assay type: cell-based; settings: Homo sapiens
CCRF-CEM [10] = assay: Antiproliferative activity against human CCRF-CEM cells assessed as cell viability after 72 hrs by MTT assay; assay type: functional, cell-based
A549 [11] = assay: Antiproliferative activity against human A549 cells assessed as cell viability after 72 hrs by MTT assay; assay type: functional, cell-based; settings: A549, 72 h
MCF7 [12] = assay: Antiproliferative activity against human MCF7 cells assessed as cell viability after 72 hrs by MTT assay; assay type: functional, cell-based; settings: MCF7, 72 h
MDA-MB-231 [13] = assay: Potency index, ratio of etoposide IC50 to compound IC50 for human MDA-MB-231 cells; assay type: functional

| Structure (SMILES) | Ratio IC50 (MCF7 [1]) | Ratio IC50 (HeLa [2]) | IC50 (MDA-MB-231 [3]) | IC50 (Jurkat [4]) | Ratio IC50 (A549 [5]) | Ratio IC50 (CCRF-CEM [6]) | Ratio IC50 (Jurkat [7]) | IC50 (HeLa [8]) | Ratio IC50 [9] | IC50 (HUVEC) | IC50 (CCRF-CEM [10]) | IC50 (A549 [11]) | IC50 (MCF7 [12]) | Ratio IC50 (MDA-MB-231 [13]) |
| --- | --- | --- | --- | --- | --- | --- | --- | --- | --- | --- | --- | --- | --- | --- |
| c1ccc(NC2=NCc3c([nH]c4ccccc34)S2)cc1 | 3 | >3.7 | 12.2 µM | 9.5 µM | >2.9 | >11 | >10 | 27 µM | >8 | > 100 µM | 9 µM | 34.1 µM | 31.6 µM | – |
| Clc1ccc(NC2=NCc3c([nH]c4ccccc34)S2)cc1 | 0.3 | 0.3 | 7.2 µM | 9.8 µM | 1.1 | 0.3 | 0.8 | 32.4 µM | 1.2 | 8.5 µM | 29.8 µM | 7.4 µM | 30 µM | 2 |
| COc1ccc(NC2=NCc3c([nH]c4ccccc34)S2)cc1 | 1.8 | 3.7 | 7.3 µM | 8.2 µM | 1.7 | >5.1 | 6.2 | 13.9 µM | 7 | 51 µM | < 10 µM | 30.1 µM | 28.7 µM | 2 |
| Cc1ccc(NC2=NCc3c([nH]c4ccccc34)S2)cc1 | 3.1 | >3.6 | 7.9 µM | 8 µM | >3.2 | >20 | >12.5 | 27.5 µM | >12.6 | > 100 µM | 5 µM | 31.2 µM | 32.1 µM | 2 |
| O=[N+]([O-])c1ccc(NC2=NCc3c([nH]c4ccccc34)S2)cc1 | 7.5 | 6.2 | 5.4 µM | 7.4 µM | 1.8 | 11.6 | 7.8 | 9.3 µM | 10.7 | 58 µM | 5 µM | 32 µM | 7.7 µM | 2 |
| FC(F)(F)c1ccc(NC2=NCc3c([nH]c4ccccc34)S2)cc1 | 1.9 | 0.9 | 36.2 µM | 10 µM | 1.7 | 6.9 | 6.9 | 72.4 µM | 1.9 | 68.5 µM | 10 µM | 40.8 µM | 35.7 µM | – |
| FC(F)(F)c1cc(NC2=NCc3c([nH]c4ccccc34)S2)cc(C(F)(F)F)c1 | 1.3 | 0.7 | 37.1 µM | 7.5 µM | 0.7 | 6.6 | 6.6 | 69.8 µM | 1.3 | 49.6 µM | 7.5 µM | 70.1 µM | 38.7 µM | – |
| COc1ccc(NC2=NC[C@]3(S2)c2ccccc2N(C(=O)OC(C)(C)C)[C@@H]3OC)cc1 (racemic) | – | – | 38.3 µM | 25 µM | – | – | – | 25 µM | – | – | 24.7 µM | 31.3 µM | 31.2 µM | – |
| CO[C@H]1N(C(=O)OC(C)(C)C)c2ccccc2[C@@]12CN=C(SC)S2 (racemic) | – | – | 87 µM | 37.3 µM | – | – | – | 74.3 µM | – | – | 37.9 µM | 70.5 µM | 70.2 µM | – |
| CO[C@@H]1N(C(=O)OC(C)(C)C)c2ccccc2[C@@]12CN=C(SC)S2 (racemic) | – | – | 97.7 µM | 43.4 µM | – | – | – | 77.6 µM | – | – | 41.9 µM | 96.3 µM | 100 µM | – |
| CO[C@H]1N(C(=O)OC(C)(C)C)c2ccccc2[C@@]12CN=C(Nc1ccccc1)S2 (racemic) | – | – | 40.3 µM | 10 µM | – | – | – | 31.7 µM | – | – | 12.2 µM | 29.2 µM | 6.2 µM | – |
| CO[C@@H]1N(C(=O)OC(C)(C)C)c2ccccc2[C@@]12CN=C(Nc1ccccc1)S2 (racemic) | – | – | 34 µM | 19 µM | – | – | – | 28 µM | – | – | 22 µM | 34 µM | 32 µM | – |
